Results from patent US4792559A, “1,2,3,4-tetrahydroquinoline substituted 5-aminopentanenitrile compounds and their use as calcium modulators” (ADIR et Compagnie, priority 1985, dated 1988).
Entries after “also recorded” stand apart in the source; their conditions may differ. Like-named read-outs stand apart in the source and are kept apart here.

Columns and labels:
left auricle (LA) = experiment: Isolated left auricle, inotropic effect; design: species or system rat (male Wistar); conditions: Rattus norvegicus; stimulated electrically at 3 Hz
Protocol: (§1) a. Study of isolated organs removed from rats
(§2) Male Wistar rats weighing from 350 to 400 g are used.
(§3) the right auricle (RA) and left auricle (LA) RA beats spontaneously.
LA is stimulated electrically at a rate of 3 Hz (180 beats per min.) (amplitude of the stimulations: threshold×2).
(§4) Stabilisation is obtained in physiological liquid (2) after 30 minutes.
(§5) The substances to be tested are then added (test sample 0.2 ml) in cumulative doses every 15 minutes. The effects on RA are chronotropic. The effects on LA are inotropic. The construction of the activity-dose curves enables the IC50, expressed in M, to be measured.

calmodulin = calmodulin (Homo sapiens, UniProt P0DP23); experiment: Calcium calmodulin binding, fluorescence of dansylated calmodulin; conditions: for Kd/IC50 AORTA K+: close to 1 indicates vascular inhibition through calmodulin; for Kd: extrapolated to 0 calmodulin, read-out: Kd (cam); for mechanism indicated by the pharmacological effects: in vitro
Protocol: b. Fixation on calcium calmodulin binding
The orientations of synthesis which may lead to possibilities of inhibiting calmodulin are evaluated by measuring the fluorescence of dansylated calmodulin.
The substances to be tested are added to the experimental vessel (2 ml). The increase in fluorescence of dansylated calmodulin enables effect-dose curves to be constructed; measuring the EC50 gives an apparent Kd value. After extrapolation of the apparent Kd values to 0 calmodulin, the experiments carried out for different calcium-calmodulin concentration values enable the characteristic Kd values of the tested substances to be determined (Method proposed by Johnson and Wittenauer, 1983, Biochem., 211, 473-479).
d. Evaluation of the possibility of inhibition at the calmodulin level

left auricle / aorta = experiment: Evaluation of myocardium/vessel selectivity (IC50 LA/IC50 aorta); design: species or system rat (male Wistar); conditions: for LA/AORTA SELECTIVITY (St:K+): IC50 LA/IC50 aorta, high values indicate vascular selectivity
Description: c. Evaluation of myocardium/vessel selectivity
The IC50 LA/IC50 aorta ratio leads to a first evaluation; the high values indicate vascular selectivity.

[1] = system: aorta artery of the rat without endothelium; experiment: Contraction of rat aorta without endothelium by ionophore calcium A 23187; conditions: A 23187 at 5.10^-6 M
aorta [2] = experiment: Isolated rat aorta rings stimulated with noradrenaline (10^-6 M), relaxation; design: species or system rat (male Wistar); conditions: read-out: AORTA St:NA IC50
Protocol: as §1, §2
(§6) After rapid sacrifice of the animal, the following are removed:
(§7) the aorta, dissected and prepared in rings; after an equilibration period of 1 hour in the reference physiological solution (1), the prepared specimens are stimulated with a solution rich in potassium (K^+) (100 mM) or with noradrenaline (NA) (10^-6 M).
(§8) The substances to be tested are then added (test sample 0.2 ml) in cumulative doses every 15 minutes.
(§9) The relaxation values obtained permit an activity-dose curve to be constructed, enabling the IC50 to be calculated in M.
(§10) The characteristics of the solutions used are as follows: […]

dogs = experiment: Haemodynamic study in anaesthetised dogs; format: in vivo, mongrel dogs; conditions: for dP/dt: Left ventricular pressure derivative, variation: measured at 20 minutes; for negative inotropic effect / cardiotropic effect / percentage increase in the PR duration: i.v., compared with Verapamil
Protocol: A haemodynamic study was carried out on mongrel dogs weighing from 25 to 30 kg, which were anaesthetised with sodium pentobarbital in a dose of 30 mg/kg i.v., intubated and ventilated, and subjected to a thoracotomy at the 5th left intercostal space.
The left and aortal ventricular pressures are measured by means of MILLAR probes introduced by the femoral artery route. The cardiac frequency is measured by Biotach Gould ECG (derivation D2); the gases of the aortal blood and of the coronary sinus are analysed by an ABL3 radiometer.
The products tested were injected by the femoral vein route.

right auricle (RA) = experiment: Isolated right auricle, chronotropic effect; design: species or system rat (male Wistar); conditions: Rattus norvegicus
Protocol: as §1, §2, §3, §4, §5

[3] = molecular target: T1, Ca++ channels of membranes of transverse tubules in skeletal muscle (Homo sapiens, UniProt Q13698); experiment: Binding on Ca++ channels of membranes of transverse tubules in skeletal muscle
T1 construct: membranes of transverse tubules in skeletal muscle; from tissue; host or cells: skeletal muscle, transverse tubule membranes
Description: (§11) C. Binding on Ca^++ channels of membranes of transverse tubules in skeletal muscle.

[4] = molecular target: T2, Ca++ channels of membranes of transverse tubules in skeletal muscle; experiment: as above; conditions: transverse tubules in skeletal muscle; read-out: Kd for the Ca++ channel
T2 construct: membranes of transverse tubules in skeletal muscle; from tissue; host or cells: skeletal muscle, transverse tubule membranes
Description: as §11

aorta [5] = experiment: Isolated rat aorta rings stimulated with potassium-rich solution (K+ 100 mM), relaxation; design: species or system rat (male Wistar); conditions: aorta rings stimulated with K+ 100 mM, read-out: AORTA St:K+ IC50
Protocol: as §1, §2, §6, §7, §8, §9, §10

[6] = spontaneously beating, read-out: RIGHT AURICLE (RA) (CHRONOTROPIC EFFECT) IC50

T1 sequence (Q13698 whole entry): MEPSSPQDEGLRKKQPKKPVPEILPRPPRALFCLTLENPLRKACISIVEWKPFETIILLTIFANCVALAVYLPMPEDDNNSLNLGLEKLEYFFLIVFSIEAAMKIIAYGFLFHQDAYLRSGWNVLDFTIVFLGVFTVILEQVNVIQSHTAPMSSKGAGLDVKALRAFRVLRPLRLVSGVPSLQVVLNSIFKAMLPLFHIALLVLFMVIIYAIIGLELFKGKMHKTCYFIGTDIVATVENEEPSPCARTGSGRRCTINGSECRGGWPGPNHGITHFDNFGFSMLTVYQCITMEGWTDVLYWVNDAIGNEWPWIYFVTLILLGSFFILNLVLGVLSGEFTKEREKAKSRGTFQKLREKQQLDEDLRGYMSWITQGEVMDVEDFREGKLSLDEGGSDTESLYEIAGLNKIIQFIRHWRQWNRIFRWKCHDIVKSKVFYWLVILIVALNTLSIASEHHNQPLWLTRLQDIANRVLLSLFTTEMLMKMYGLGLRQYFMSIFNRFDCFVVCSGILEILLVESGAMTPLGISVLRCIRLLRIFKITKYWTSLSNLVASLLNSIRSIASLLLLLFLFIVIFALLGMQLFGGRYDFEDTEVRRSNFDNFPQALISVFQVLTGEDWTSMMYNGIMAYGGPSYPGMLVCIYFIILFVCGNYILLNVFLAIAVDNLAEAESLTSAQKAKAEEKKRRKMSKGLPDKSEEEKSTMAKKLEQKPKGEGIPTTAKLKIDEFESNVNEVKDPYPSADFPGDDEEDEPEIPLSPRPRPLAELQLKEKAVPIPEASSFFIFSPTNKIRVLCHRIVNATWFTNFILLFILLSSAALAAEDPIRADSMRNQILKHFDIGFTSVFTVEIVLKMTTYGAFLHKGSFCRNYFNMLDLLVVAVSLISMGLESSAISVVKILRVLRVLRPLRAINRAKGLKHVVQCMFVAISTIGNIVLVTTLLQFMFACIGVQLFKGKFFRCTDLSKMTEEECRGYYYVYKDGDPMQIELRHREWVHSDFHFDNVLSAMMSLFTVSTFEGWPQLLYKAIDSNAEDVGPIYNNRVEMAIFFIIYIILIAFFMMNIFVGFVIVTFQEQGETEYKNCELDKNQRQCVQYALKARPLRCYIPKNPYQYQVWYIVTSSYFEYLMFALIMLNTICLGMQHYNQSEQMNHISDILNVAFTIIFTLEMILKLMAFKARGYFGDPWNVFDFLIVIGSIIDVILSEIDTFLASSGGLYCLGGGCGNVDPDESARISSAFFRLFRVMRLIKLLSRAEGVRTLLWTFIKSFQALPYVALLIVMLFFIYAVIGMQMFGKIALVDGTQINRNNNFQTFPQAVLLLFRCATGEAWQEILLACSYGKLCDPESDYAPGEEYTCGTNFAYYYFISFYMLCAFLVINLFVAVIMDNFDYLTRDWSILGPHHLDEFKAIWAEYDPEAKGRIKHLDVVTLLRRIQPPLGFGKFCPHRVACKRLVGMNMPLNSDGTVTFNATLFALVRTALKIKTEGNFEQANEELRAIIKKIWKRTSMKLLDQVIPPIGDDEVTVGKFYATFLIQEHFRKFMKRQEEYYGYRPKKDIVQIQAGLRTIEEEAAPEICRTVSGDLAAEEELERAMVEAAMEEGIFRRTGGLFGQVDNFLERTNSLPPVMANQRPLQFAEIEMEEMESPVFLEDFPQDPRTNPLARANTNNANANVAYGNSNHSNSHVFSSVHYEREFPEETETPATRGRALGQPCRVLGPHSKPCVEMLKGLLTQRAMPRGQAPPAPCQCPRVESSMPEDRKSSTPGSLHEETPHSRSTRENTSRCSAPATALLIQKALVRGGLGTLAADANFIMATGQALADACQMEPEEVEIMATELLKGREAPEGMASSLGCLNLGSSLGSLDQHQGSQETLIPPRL
T1 sequence (P54289 25-944 partner limits assumed): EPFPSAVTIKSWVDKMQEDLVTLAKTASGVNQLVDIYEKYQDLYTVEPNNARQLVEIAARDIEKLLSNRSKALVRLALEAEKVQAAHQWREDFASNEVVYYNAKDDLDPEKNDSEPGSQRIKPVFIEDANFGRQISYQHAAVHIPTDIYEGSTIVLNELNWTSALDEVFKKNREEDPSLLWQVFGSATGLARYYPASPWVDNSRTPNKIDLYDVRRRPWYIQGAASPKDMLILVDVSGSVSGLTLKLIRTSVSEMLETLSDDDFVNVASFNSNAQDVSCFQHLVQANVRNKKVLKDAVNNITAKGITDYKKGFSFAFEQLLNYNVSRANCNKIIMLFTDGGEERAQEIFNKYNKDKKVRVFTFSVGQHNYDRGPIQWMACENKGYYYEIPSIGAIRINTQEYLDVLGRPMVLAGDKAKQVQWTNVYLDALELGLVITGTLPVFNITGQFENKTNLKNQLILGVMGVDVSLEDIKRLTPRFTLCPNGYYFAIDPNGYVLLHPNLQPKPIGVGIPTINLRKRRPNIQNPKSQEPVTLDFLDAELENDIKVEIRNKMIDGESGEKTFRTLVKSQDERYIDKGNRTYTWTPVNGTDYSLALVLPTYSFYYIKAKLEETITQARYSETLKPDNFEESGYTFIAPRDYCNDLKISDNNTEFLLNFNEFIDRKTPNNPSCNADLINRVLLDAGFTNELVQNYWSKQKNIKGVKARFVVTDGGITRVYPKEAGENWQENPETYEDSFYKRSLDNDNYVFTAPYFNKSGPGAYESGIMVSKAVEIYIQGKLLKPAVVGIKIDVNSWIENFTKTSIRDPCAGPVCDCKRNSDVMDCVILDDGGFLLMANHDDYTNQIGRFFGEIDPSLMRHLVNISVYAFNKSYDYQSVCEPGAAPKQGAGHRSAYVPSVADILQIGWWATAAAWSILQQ
T1 sequence (P54289 945-1103 partner limits assumed): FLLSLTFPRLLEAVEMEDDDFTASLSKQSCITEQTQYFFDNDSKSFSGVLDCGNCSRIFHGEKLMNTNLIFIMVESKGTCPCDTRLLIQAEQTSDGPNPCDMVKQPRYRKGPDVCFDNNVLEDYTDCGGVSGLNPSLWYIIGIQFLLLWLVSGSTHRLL
T1 sequence (Q02641 whole entry partner): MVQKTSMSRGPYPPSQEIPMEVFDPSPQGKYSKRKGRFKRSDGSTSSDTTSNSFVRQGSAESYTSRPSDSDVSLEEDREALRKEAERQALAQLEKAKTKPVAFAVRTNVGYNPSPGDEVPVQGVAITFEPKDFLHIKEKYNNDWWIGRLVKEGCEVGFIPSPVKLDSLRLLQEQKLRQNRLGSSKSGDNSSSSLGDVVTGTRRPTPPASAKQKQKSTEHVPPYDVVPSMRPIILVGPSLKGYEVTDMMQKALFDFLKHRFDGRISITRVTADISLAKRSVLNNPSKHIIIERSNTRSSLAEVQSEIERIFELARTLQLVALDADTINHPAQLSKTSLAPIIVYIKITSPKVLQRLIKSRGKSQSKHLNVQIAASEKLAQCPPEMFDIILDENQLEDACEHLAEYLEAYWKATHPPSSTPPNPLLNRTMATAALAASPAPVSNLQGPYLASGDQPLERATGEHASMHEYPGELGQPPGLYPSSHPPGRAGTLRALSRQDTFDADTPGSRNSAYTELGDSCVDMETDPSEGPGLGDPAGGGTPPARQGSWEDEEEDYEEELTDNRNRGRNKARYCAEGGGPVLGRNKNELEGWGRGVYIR
T1 sequence (Q06432 whole entry partner): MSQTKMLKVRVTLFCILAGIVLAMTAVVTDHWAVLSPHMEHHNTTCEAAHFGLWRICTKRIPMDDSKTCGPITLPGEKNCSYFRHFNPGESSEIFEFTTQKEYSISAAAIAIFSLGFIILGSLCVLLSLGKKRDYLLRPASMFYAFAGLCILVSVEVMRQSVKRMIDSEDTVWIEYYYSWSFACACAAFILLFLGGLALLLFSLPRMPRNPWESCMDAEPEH
T2 sequence (Q13698 whole entry): as the sequence (Q13698 whole entry) above
T2 sequence (P54289 25-944 partner limits assumed): as the sequence (P54289 25-944 partner limits assumed) above
T2 sequence (P54289 945-1103 partner limits assumed): as the sequence (P54289 945-1103 partner limits assumed) above
T2 sequence (Q02641 whole entry partner): as the sequence (Q02641 whole entry partner) above
T2 sequence (Q06432 whole entry partner): as the sequence (Q06432 whole entry partner) above

Structure (SMILES) | IC50 (left auricle (LA)) [nM] | Kd/IC50 AORTA K+ (calmodulin) | Kd (calmodulin) [nM] | LA/AORTA SELECTIVITY (St:K+) (left auricle / aorta) | IC50 (aorta [2]) [nM] | AAP: Average arterial pressure, maximum variation (dogs; IV 100 μg/kg) [%] | ACF: Average coronary flow, maximum variation (dogs; IV 100 μg/kg) | CF: Cardiac frequency, maximum variation (dogs; IV 100 μg/kg) [%] | PO2 SC: PO2 coronary blood sinus, maximum variation (dogs; IV 100 μg/kg) | PR: PR space of the ECG, maximum variation (dogs; IV 100 μg/kg) | dP/dt: Left ventricular pressure derivative, variation (dogs; IV 100 μg/kg) [%] | AAP: Average arterial pressure, maximum variation (dogs; IV 300 μg/kg) [%] | ACF: Average coronary flow, maximum variation (dogs; IV 300 μg/kg) | CF: Cardiac frequency, maximum variation (dogs; IV 300 μg/kg) [%] | I/C: Myocardial O2 intake/consumption ratio, maximum variation (dogs; IV 300 μg/kg) | PO2 SC: PO2 coronary blood sinus, maximum variation (dogs; IV 300 μg/kg) | PR: PR space of the ECG, maximum variation (dogs; IV 300 μg/kg) | dP/dt: Left ventricular pressure derivative, variation (dogs; IV 300 μg/kg) [%] | IC50 (right auricle (RA); [6]) [nM] | IC50 (aorta [5]; Rattus norvegicus) [nM] | also measured
COc1cccc(C(C#N)(CCCN(C)CCc2ccc(OC)c3c2CCCN3C(C)=O)Sc2ccccc2)c1 (centres unmarked) [Example 1, 2-(3-methoxyphenyl)-2-phenylthio-5-{N-[(1-acetyl-8-methoxy-1,2,3,4-tetrahydroquinol-5-yl)ethyl]-N-methylamino}-pentanenitrile] | 82000 | 1.08 | 810 | 100 | 5500 | -9 | +109% | -10 | +36% | +7% | 0 | -24 | +117% | -14 | +118% | +63% | +19% | -3 | 10000 | 750 | affinity for calmodulin (calmodulin): an affinity for calmodulin coherent with the biological effect; mechanism indicated by the pharmacological effects (calmodulin): intracellular inhibitory mechanisms and, especially, a calcium-calmodulin inhibition mechanism; vascular selectivity (left auricle / aorta; compared with verapamil): this selectivity is greatest; also recorded: a greater selectivity in favour of vessels; IC50 ([1]; Rattus norvegicus): ~1000 nM; AAP: Average arterial pressure, maximum variation (dogs; IV 30 μg/kg): 0%; ACF: Average coronary flow, maximum variation (dogs; IV 30 μg/kg): +54%; CF: Cardiac frequency, maximum variation (dogs; IV 30 μg/kg): -5%; I/C: Myocardial O2 intake/consumption ratio, maximum variation (dogs; IV 30 μg/kg): +19%; PO2 SC: PO2 coronary blood sinus, maximum variation (dogs; IV 30 μg/kg): +14%; PR: PR space of the ECG, maximum variation (dogs; IV 30 μg/kg): 0%; I/C: Myocardial O2 intake/consumption ratio, maximum variation (dogs; IV 100 μg/kg): +55%; negative inotropic effect / cardiotropic effect (dogs): absence of a negative inotropic effect; percentage increase in the PR duration (dogs): reduction in the percentage increase in the PR duration; affinity for calcium channels relative to verapamil [3]: ~20 times the one of verapamil; Kd [4]: 1 nM; IC50 (aorta [5]): 600 nM
COc1ccc(C(C#N)(CCCN(C)CCc2ccc(OC)c3c2CCCN3C(C)=O)C(C)C)cc1OC (centres unmarked) [Example 4, 2-(3,4-dimethoxyphenyl)-2-isopropyl-5-{N-[(1-acetyl-8-methoxy-1,2,3,4-tetrahydroquinol-5-yl)ethyl]-N-methyl-amino}-pentanenitrile] | 8000 | 10.8 | 6500 | 13 | 13000 |  |  |  |  |  |  | -14 | +84% | -17 | +83% | +47% | +27% | -2 | 1500 | 600 | 
COc1ccc(C(C#N)(CCCN(C)CCc2ccc(OC)c3c2CCCN3C(C)=O)Sc2ccccc2)cc1OC (centres unmarked) [Example 7, 2-(3,4-dimethoxyphenyl)-2-phenylthio-5-{N-[(1-acetyl-8-methoxy-1,2,3,4-tetrahydroquinol-5-yl)ethyl]-N-methyl-amino}-pentanenitrile] | 5500 | 0.66 | 240 | 15 | 3000 |  |  |  |  |  |  | -16 | +77% | -7 | +52% | +36% | +15% | 0 | 2900 | 360 | mechanism indicated by the pharmacological effects (calmodulin): intracellular inhibitory mechanisms and, especially, a calcium-calmodulin inhibition mechanism; AAP: Average arterial pressure, maximum variation (dogs; IV 1000 μg/kg): -36%; ACF: Average coronary flow, maximum variation (dogs; IV 1000 μg/kg): +132%; CF: Cardiac frequency, maximum variation (dogs; IV 1000 μg/kg): -11%; I/C: Myocardial O2 intake/consumption ratio, maximum variation (dogs; IV 1000 μg/kg): +107%; PO2 SC: PO2 coronary blood sinus, maximum variation (dogs; IV 1000 μg/kg): +49%; PR: PR space of the ECG, maximum variation (dogs; IV 1000 μg/kg): +37%; dP/dt: Left ventricular pressure derivative, variation (dogs; IV 1000 μg/kg): -3%; negative inotropic effect / cardiotropic effect (dogs): absence of a negative inotropic effect; percentage increase in the PR duration (dogs): reduction in the percentage increase in the PR duration
COc1cccc(C(C#N)(CCCN(C)CCc2ccc(OC)c3c2CCCN3C(C)=O)C(C)C)c1 (centres unmarked) [Example 13, 2-(3-methoxyphenyl)-2-isopropyl-5-{N-[(1-acetyl-8-methoxy-1,2,3,4-tetrahydroquinol-5-yl)ethyl]-N-methyl-amino}-pentanenitrile] | 5200 | 97 | 34000 | 20 | 30000 | -10 | +42% | -11 | +40% | +10% | 0 | -23 |  | -15 | +99% | +59% | +32% | -6 | 1000 | 250 | I/C: Myocardial O2 intake/consumption ratio, maximum variation (dogs; IV 100 μg/kg): +45%
COc1ccc(CCN(C)CCCC(C#N)(c2ccc(OC)c(OC)c2)C(C)C)cc1OC (centres unmarked) [Verapamil, verapamil, reference compound] | 2000 |  |  |  | 14000 | -16 | +87% | -9 | +42% | +14% | -5 | -21 | +99% | -8 |  | +71% | +40% | -13 |  | 800 | activity on contraction by ionophore calcium A 23187 [1]: inactive; AAP: Average arterial pressure, maximum variation (dogs; IV 30 μg/kg): -5%; ACF: Average coronary flow, maximum variation (dogs; IV 30 μg/kg): +32%; CF: Cardiac frequency, maximum variation (dogs; IV 30 μg/kg): -4%; PO2 SC: PO2 coronary blood sinus, maximum variation (dogs; IV 30 μg/kg): +18%; PR: PR space of the ECG, maximum variation (dogs; IV 30 μg/kg): +6%; IC50 (right auricle (RA); read-out: RIGHT AURICLE (RA) (CH[…]) IC50): 2000 nM
